Where “and” joins values, the source holds several entries; their conditions need not be identical. Identical values can stand only once. Like-named read-outs stand apart in the source and are kept apart here.
Experiments:
[1] = Phase I pharmacokinetic study of (Z)-endoxifen tablet and capsule, single and multiple dose; assay type: in vivo, human; settings: for (E)-endoxifen levels in serum and plasma: all the times studied
Protocol: A total of 24 healthy female subjects aged ≥18 years and ≤65 years (inclusive) at the time of screening were randomly assigned and enrolled into two groups (each group n=12) in double-blinded fashion and received the study drug by once daily oral administration. […] Both groups were dosed in the SAD phase of the study. The safety and PK results from both groups were reviewed to determine if both Groups 1 and 2 were to be dosed in the MAD phase of the study, or if only Group 2 (tablets) were to be dosed in the MAD phase. […] The subjects then received 14 daily doses in the MAD. Subjects were not required to take the drugs with food.
Subjects were admitted to the clinical facility on Day 1 for up to 3 days. […] Following completion of all safety assessments and sampling for PK analyses, subjects were discharged from the clinical facility on Day 2. Days 2 to 25 were study drug free or daily dosing pause. A safety summary and up to day 6 post dose, PK data were analyzed (blindedly) and reviewed prior to initiation of the MAD regimen in one or both groups.
MAD regimen started on Day 26. Depending on the outcome of the safety and PK review, wither […] or both Groups 1 and 2 were to be dosed in the MAD part of the study starting on Day 26. […] Subjects in MAD part of the study commenced daily oral administration of the study drug for 14 consecutive days (Days 26 to 39). Subjects were supplied with study drug and instructed to self-administer each morning on empty stomach.
Day 39 was the last day of study drug administration. On Day 39, each subject returned to the clinical facility prior to dose administration and were confined to the facility until Day 40 to allow for collection of blood for PK and safety assessment. Subjects were discharged on Day 40 and returned for blood collection for PK and safety assessment on study Days 42, 44, and 46.
Safety and PK samples was collected during the daily dosing pause on Days 4, 6, 15, and 22.
MAD: Day 26 pre-dose and on Day 32 pre-dose: safety and PK samples was collected. […] Pharmacokinetic parameters determined using Phoenix WinNonlin 8.1. All times used in the calculations of PK parameters were the actual elapsed time from most recent treatment administration, with the exception of pre-dose data which was given the nominal time of 0.00 hr.

[2] = Forced degradation (acid, base, heat, oxidation); assay type: physicochemical
[3] = Phase I study: safety and tolerability of (Z)-endoxifen tablet and capsule; assay type: in vivo, human
Description: The primary objective of the study was to determine and compare the pharmacokinetics of a single oral dose of a previously studied oral (Z)-endoxifen capsule with a sustained release composition in the form of an enteric coated delayed release (Z)-endoxifen tablet (“tablet”) in healthy female volunteers. […] A secondary objective of the study was to assess the safety and tolerability of each of the oral presentation groups and to assess and compare the side effects associated with (Z)-endoxifen (capsule) or the enteric coated delayed-release (Z)-endoxifen tablet using a questionnaire.
A study diary was provided to each participant for the purpose of recording study drug administration (date and time) and adverse events.
Study assessments included taking the subjects' medical history, including evaluation of any on-study adverse events and concomitant medication use; height and weight; physical examination; periodic vital signs (body temperature, heart rate, respiratory rate, blood pressure); periodic 12-lead ECGs. Laboratory tests included hematology, coagulation, urinalysis, serum chemistry, virology, illicit drug screen, alcohol breath test, and pregnancy test.
Specific assessment to evaluate treatment safety included the following: the frequency and type of adverse events, clinical laboratory testing, 12-lead-ECGs and vital signs. A modified FACTES® scoring questionnaire was used to assess symptomatology.

[4] = system: breast cancer tumor cell proliferation (Ki-67); assay: Phase 2 clinical trial of oral endoxifen: Ki-67 in breast cancer tumors; assay type: in vivo, human
Protocol: A phase 2 clinical trial of (Z)-endoxifen for treatment of breast cancer was performed. Subjects with invasive breast cancer were administered (Z)-endoxifen orally prior to undergoing mastectomy or lumpectomy. The effect of pre-operative oral (Z)-endoxifen treatment on clinical response measured by Ki-67 expression levels was assessed. Ki-67 expression levels were used as a measure of tumor cell proliferation in the subjects. The purpose of this study was to determine the effect of orally administered endoxifen on breast cancer tumor cell proliferation.
Subjects were selected who had received an invasive breast cancer diagnosis that required a mastectomy or lumpectomy, in which the cancer was Estrogen Receptor (ER) positive and Human Epidermal growth factor Receptor 2 (HER2) negative.
Subjects with ER positive invasive breast cancer that were scheduled for mastectomy or lumpectomy were considered for the study. Subjects consenting to the study were screened within 28 days prior to commencement of the dosing. Potential subjects were asked to consent to have tissue sections obtained from the biopsy material used for their immunopathology diagnosis. The biopsy material was used to determine baseline expression levels for Ki-67, ER, PgR and the exploratory markers.
An initial group of six subjects was selected. Subjects visited the clinical facility once within 2 days prior to commencement of treatment for study assessments. Subjects were supplied with study drug and were asked to self-administer daily. A study diary was provided to each subject for the purpose of recording study drug administration (date and time) and any adverse events. All subjects received an oral daily dose of 4 mg/day (Z)-Endoxifen until the day preceding their scheduled surgery and for a minimum of 14-days. Subjects were instructed to take each dose in the morning in a fasted state, defined as no food at least 8 hours prior to study medication through to one hour following study medication. Subjects were instructed to self-administer (Z)-Endoxifen orally with a full cup (approximately 240 mL) of noncarbonated room temperature water (additional water is permitted, if needed). There are no restrictions related to water intake. Consecutive doses were administered 24 (±2) hours apart. If a scheduled dose was missed, the dose could be taken up to 6 hours after the scheduled dose.
(§1) Each subject returned to the clinical facility for safety assessments on a day during the week preceding their scheduled surgery. The expression of Ki-67, ER, progesterone receptor (PgR), and other exploratory markers, was measured in tumor tissue obtained during the mastectomy (or lumpectomy) and compared to the expression of these markers in pre-operative baseline biopsy material obtained prior to commencement of study treatment. Pharmacodynamic exploratory markers including Proliferating cell nuclear antigen (PCNA, S phase), phosphor-histone H3 (M phase), p16 and p12 (senescence), beta-galactosidase (senescence), Terminal deoxynucleotidyl transferase dUTP nick end labeling (TUNEL, apoptosis), and RNA sequence were assessed. Ki-67, ER, PgR expression were measured using standard immunopathology techniques, and exploratory markers were measured using established laboratory assays. Endoxifen levels in blood measured in blood drawn prior to dosing on day 14 of study treatment administration. Individual and mean serum and plasma concentrations of Endoxifen were tabulated.

[5] = Phase 2 clinical trial of oral endoxifen: safety and tolerability; assay type: in vivo, human; settings: 4 mg/day, 16-40 days
Protocol: Secondary effects of orally administered (Z)-endoxifen were also assessed, namely the effect of pre-operative (Z)-endoxifen treatment on the expression levels of estrogen receptor and progesterone receptor. […] Additional exploratory objectives including assessing the effect of pre-operative (Z)-Endoxifen treatment on PCNA (S phase), phospho-Histone H3 (M phase), p16 and p21 (senescence), Beta-Galactosidase (senescence), and TUNEL (apoptosis) markers, and identifying tumor RNA expression changes using RNA sequence.
An initial group of six subjects was selected. Subjects visited the clinical facility once within 2 days prior to commencement of treatment for study assessments. […]
as §1, with “Pharmacodynamic exploratory markers including Proliferating cell nuclear antigen (PCNA, S phase), phosphor-histone H3 (M phase), p16 and p12 (senescence), beta-galactosidase (senescence), Terminal deoxynucleotidyl transferase dUTP nick end labeling (TUNEL, apoptosis), and RNA sequence were assessed.” left out, “Individual and mean serum and plasma concentrations of Endoxifen were tabulated.” left out

[6] = Safety, tolerability and pharmacokinetics of (Z)-Endoxifen in healthy female volunteers (Protocol AG-1001-AU-001); assay type: in vivo, human
Protocol: The safety, tolerability and pharmacokinetics of (Z)-Endoxifen was assessed in healthy female volunteers (Protocol AG-1001-AU-001). Participants were treated with oral (Z)-Endoxifen (1 mg, 2 mg and 4 mg) once daily for a total of fifteen doses (Days 1, and 8-21).
Average concentration at steady state (AUCtau/tau) were compared to published values.

[7] = cited from earlier work
[8] = multiple administration dose phase
[9] = single administration dose phase

## CCC(=C(c1ccc(O)cc1)c1ccc(OCCNC)cc1)c1ccccc1 [(E)-endoxifen]
[1]; [8]
  (E)-endoxifen levels in serum and plasma: undetectable
[1]; [9]
  (E)-endoxifen levels in serum and plasma: undetectable

## CCC(=C(c1ccc(O)cc1)c1ccc(OCCNC)cc1)c1ccccc1 [(Z)-endoxifen, 4-hydroxy-N-desmethyl-tamoxifen]
[2]; Acid: 0.5N HCl for 27 hrs
  % degradation: No degradation
[2]; Base: 0.5N NaOH for 27 hrs
  % degradation: 0.12%
[2]; Heat: 105° C. for 51 hrs
  % degradation: No degradation
[1]; by Day 26 (600 hours post-dose)
  Plasma (Z)-endoxifen level: below the detection levels
[1]; female, human, blood, oral, 14 once daily 4 mg doses, read-out: (Z)-endoxifen maintained in the blood
  concentration at 14 days: ~13 ng/mL and > 30 nM
[1]; [8]
  mean serum versus time-point matched mean plasma (Z)-endoxifen concentration: approximately 1.2 fold
[1]; once daily 4 mg doses
  time to achieve steady state levels of plasma and serum (Z)-endoxifen: approximately 14 days
[1]; [9]
  mean serum versus time-point matched mean plasma (Z)-endoxifen concentration: approximately 1.1 fold
[3]; multiple dose administration phase, 2 of 19 subjects
  night sweats reported, percent of subjects: 11%
[3]; multiple dose administration phase, 4 of the 18 subjects
  hot flash reported, percent of subjects: 22%
[3]; single dose administration phase, 2 of 18 subjects
  hot flash reported, percent of subjects: 11%
[4]; initial results, six subjects, 4 mg/day, average 22 days
  Ki-67% reduction, AVERAGE: 69%
[4]; six subjects, 4 mg/day
  Ki-67 reduction in every patient: more than 50%
[4]; six subjects, 4 mg/day, 16-40 days
  Ki-67 level after Endoxifen treatment (all patients): low (low (defined as less than ˜14%))
[4]; subject R1001
  Ki-67% reduction: 60%
[4]; subject R1001, 21 days on Endoxifen 4 mg, pre 5%
  Post Endoxifen Ki-67%: 2%
[4]; subject R1002
  Ki-67% reduction: 60%
[4]; subject R1002, 23 days on Endoxifen 4 mg, pre 20%
  Post Endoxifen Ki-67%: 8%
[4]; subject R1003
  Ki-67% reduction: 87%
[4]; subject R1003, 17 days on Endoxifen 4 mg, pre 90%
  Post Endoxifen Ki-67%: 12%
[4]; subject R1004
  Ki-67% reduction: 91%
[4]; subject R1004, 17 days on Endoxifen 4 mg, pre 22%
  Post Endoxifen Ki-67%: 2%
[4]; subject R1005
  Ki-67% reduction: 60%
[4]; subject R1005, 40 days on Endoxifen 4 mg, pre 25%
  Post Endoxifen Ki-67%: 10%
[4]; subject R1006
  Ki-67% reduction: 58%
[4]; subject R1006, 16 days on Endoxifen 4 mg, pre 12%
  Post Endoxifen Ki-67%: 5%
[4]; subsequent results
  Ki-67 levels following treatment, all six patients: below 25%
[4]; subsequent results, 22 days of dosing, six subjects, p=0.031
  average reduction in tumor cell proliferation, as measured by Ki-67: about 74%
[5]
  safety or tolerability issues, including vasomotor symptoms: no safety or tolerability issues
[6]; 1 mg dose
  % Ratio of Css Study (serum)/Literature (plasma): 154%
  Study Result of Average Serum (Z)-Endoxifen Css: 19.1 ng/mL and 51.1 nM
[6]; 1 mg, 2 mg and 4 mg
  Cmax and AUC24 hr across the three dose levels: dose-proportionality
[6]; 1 mg, 2 mg and 4 mg once daily, fifteen doses
  safety signals: no clinically significant safety signals
[6]; 2 mg dose
  % Ratio of Css Study (serum)/Literature (plasma): 204%
  Study Result of Average Serum (Z)-Endoxifen Css: 38 ng/mL and 101.7 nM
[6]; 4 mg dose
  % Ratio of Css Study (serum)/Literature (plasma): 150%
  Study Result of Average Serum (Z)-Endoxifen Css: 85.1 ng/mL and 227.9 nM
[6]; female, human, serum, oral, 1 mg, 2 mg and 4 mg, read-out: mean half-life (t1/2) by dose level
  half-life: 2520 to 3180 min
[6]; once daily dosing
  time to steady state: approximately 7 days
[6]; only reported in participants who received (Z)-Endoxifen
  commonly occurring adverse events with a relationship of possible or probable: upper respiratory infection, hot flush, abdominal distension, dry mouth and menstruation delayed
[6]; single dose and then daily for 14 days, 1 mg, 2 mg and 4 mg
  tolerability: well tolerated
[7]; 1 mg dose
  Published Literature Result of Average Plasma (Z)-Endoxifen Css: 12.4 ng/mL and 33.1 nM
[7]; 2 mg dose
  Published Literature Result of Average Plasma (Z)-Endoxifen Css: 18.6 ng/mL and 49.8 nM
[7]; 4 mg dose
  Published Literature Result of Average Plasma (Z)-Endoxifen Css: 56.8 ng/mL and 152.1 nM
[7]; 8 mg dose
  Published Literature Result of Average Plasma (Z)-Endoxifen Css: 96.8 ng/mL and 259.2 nM

## CC/C(=C(\c1ccc(O)cc1)c1ccc(OCCNC)cc1)c1ccccc1.Cl [Endoxifen Chloride]
[7]; 20 mg/day, Aromatase Inhibitor Refractory Metastatic Breast Cancer, Goetz et al. 2013
  (Z)-Endoxifen Plasma: 390 nM
[7]; 20 mg/day, Goetz et al. 2013
  Outcomes: Gr 2 hot flash (1
[7]; 40 mg/day, Aromatase Inhibitor Refractory Metastatic Breast Cancer, Goetz et al. 2013
  (Z)-Endoxifen Plasma: 660 nM
[7]; 40 mg/day, Goetz et al. 2013
  Outcomes: None; Stable disease
[7]; 60 mg/day, Aromatase Inhibitor Refractory Metastatic Breast Cancer, Goetz et al. 2013
  (Z)-Endoxifen Plasma: 1,010 nM
[7]; 60 mg/day, Goetz et al. 2013
  Outcomes: Gr 4 Triglycerides
[7]; 80 mg/day, Aromatase Inhibitor Refractory Metastatic Breast Cancer, Goetz et al. 2013
  (Z)-Endoxifen Plasma: 1,610 nM
[7]; 80 mg/day, Goetz et al. 2013
  Outcomes: Gr 2 Hot flashes
[7]; 100 mg/day, Aromatase Inhibitor Refractory Metastatic Breast Cancer, Goetz et al. 2013
  (Z)-Endoxifen Plasma: 2,480 nM
[7]; 100 mg/day, Goetz et al. 2013
  Outcomes: Gr 2 nausea (1 pt); Gr
[7]; 120 mg/day, Aromatase Inhibitor Refractory Metastatic Breast Cancer, Goetz et al. 2013
  (Z)-Endoxifen Plasma: 2,180 nM
[7]; 120 mg/day, Goetz et al. 2013
  Outcomes: Gr 2 hypersomnia,
[7]; 20->160 mg/day, Goetz et al. 2015
  Outcomes: maximum tolerated dose: not observed. 1 DLT,
[7]; 160 dose (20->160 mg/day), Goetz et al. 2015
  (Z)-Endoxifen Plasma: 3,600 nM

Reference: patent US12201591B2, “Sustained release compositions of endoxifen” (Atossa Therapeutics, Inc., priority 2019, dated 2025)
